Values of other authors in patent US20100093842A1, “Laulimalide Analogs and Uses Thereof” (EISAI CO. LTD., priority 2003, published 2010).

Columns and labels:
[1] = test system: multi-drug resistant (MDR) cell lines that over express the P-glycoprotein pump (P-gp); conditions: cell lines over expressing P-gp
tubulin = conditions: low micromolar concentrations; compared with equivalent concentrations of Laulimalide

Structure (SMILES)	in vitro anti-mitotic activity (several cancer lines; in vitro)	cytotoxic activity (several cancer lines; several cancer lines)	activity against multi-drug resistant (MDR) cell lines [1]	rate of polymerization (tubulin)	tubulin polymer formed (tubulin)
C=C1C[C@H](C)C[C@@H]2CC=C[C@@H](C/C=C\C(=O)O[C@H]([C@@H](O)/C=C/[C@@H]3CC(C)=CCO3)C[C@@H]3O[C@H]3[C@@H](O)C1)O2 [Laulimalide]	5 to 12 nM	potent cytotoxic activity	show activity against multi-drug resistant (MDR) cell lines		
CC(=O)O[C@H]1C(=O)[C@@]2(C)[C@H]([C@H](OC(=O)c3ccccc3)[C@]3(O)C[C@H](OC(=O)[C@H](O)[C@@H](NC(=O)c4ccccc4)c4ccccc4)C(C)=C1C3(C)C)[C@]1(OC(C)=O)CO[C@@H]1C[C@@H]2O [Paclitaxel]				faster	more tubulin polymer was formed
